Experiments:
[1] = test system: NA transporter; assay: Inhibition of noradrenalin uptake in synaptosomes; format: biochemical
[2] = biological target: T1, 5-HT transporter (Rattus norvegicus, UniProt P31652); assay: Inhibition of 5-HT uptake in synaptosomes; format: biochemical; conditions: for inhibition at 1 µM: read-out: Uptake_5-HT, rat, 1 μM, % inhibition
T1 construct: from tissue; host or cells: rat brain synaptosomes (marrow/medulla and pons), P2 fraction

[3] = test system: batrachotoxin (BTX) binding site of the sodium channel; assay: Affinity to the batrachotoxin (BTX) binding site of the sodium channel; conditions: rat cerebrocortex synaptosomes, [3H]-batrachotoxinin A20 α-benzoate 10 nM; test concentration not given

T1 sequence (P31652 whole entry): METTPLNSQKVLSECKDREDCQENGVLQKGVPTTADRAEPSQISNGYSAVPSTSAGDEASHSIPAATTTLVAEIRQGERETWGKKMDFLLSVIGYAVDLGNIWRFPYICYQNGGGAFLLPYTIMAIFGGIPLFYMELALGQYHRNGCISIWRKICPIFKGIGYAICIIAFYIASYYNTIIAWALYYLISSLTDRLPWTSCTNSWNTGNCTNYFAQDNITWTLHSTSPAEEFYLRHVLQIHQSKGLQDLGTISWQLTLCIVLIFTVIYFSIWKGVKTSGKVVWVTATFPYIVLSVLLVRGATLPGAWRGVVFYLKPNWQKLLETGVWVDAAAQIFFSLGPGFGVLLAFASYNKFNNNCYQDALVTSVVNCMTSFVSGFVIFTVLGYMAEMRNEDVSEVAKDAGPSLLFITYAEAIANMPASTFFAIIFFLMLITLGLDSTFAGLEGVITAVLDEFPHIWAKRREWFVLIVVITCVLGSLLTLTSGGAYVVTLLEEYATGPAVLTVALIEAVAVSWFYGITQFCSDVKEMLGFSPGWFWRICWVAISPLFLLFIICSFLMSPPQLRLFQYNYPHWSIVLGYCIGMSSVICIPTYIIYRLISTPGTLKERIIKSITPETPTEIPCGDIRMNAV

Structure (SMILES)	Uptake (NA), rat, 10 μM, % inhibition [1] [%]	Uptake_5-HT, rat, 1 μM, % inhibition [2] [%]	BTX Inhibition [3]	inhibition at 1 µM [2] [%]
CCOC(=O)CN1C(=O)C(Cc2ccccc2)NC12CCN(S(=O)(=O)c1ccccc1S(C)(=O)=O)CC2 (stereo not drawn) [Example 47, Ethyl[3-benzyl-8-(2-methansulfonylbenzolsulfonyl)-2-oxo-1,4,8-triazaspiro[4,5]dec-1-yl]-acetate]	47	71	31	
CCCCS(=O)(=O)N1CCC2(CC1)NCC(=O)N2Cc1ccc(C(=O)OC)cc1 [Example 53, Methyl 4-[8-(butan-1-sulfonyl)-2-oxo-1,4,8-triazaspiro[4,5]dec-1-ylmethyl]-benzoate]	30		31	45
CCOC(=O)CN1C(=O)C(Cc2ccccc2)NC12CCN(S(=O)(=O)c1ccccc1C(F)(F)F)CC2 (stereo not drawn) [Example 65, Ethyl[3-benzyl-2-oxo-8-(2-trifluoromethylbenzolsulfonyl)-1,4,8-triazaspiro[4,5]dec-1-yl]-acetate]	33	71	51	
CCOC(=O)CN1C(=O)C(Cc2ccccc2)NC12CCN(S(=O)(=O)Cc1ccccc1)CC2 (stereo not drawn) [Example 68, Ethyl(3-benzyl-2-oxo-8-benzolmethansulfonyl-1,4,8-triazaspiro[4,5]dec-1-yl)acetate]	31	69	47	
COc1ccccc1NC(=S)N1CCC2(CC1)NC(Cc1ccccc1)C(=O)N2Cc1ccccc1F (stereo not drawn) [Example 108, 3-Benzyl-1-(2-fluorobenzyl)-2-oxo-1,4,8-triazaspiro[4,5]decan-8-thiocarboxylic acid (2-methoxy-benzol)amide]	31	86	86	
CCCCN1C(=O)C(C(C)C)NC12CCN(C(=S)NCc1ccc(Cl)cc1)CC2 (stereo not drawn) [Example 150, 1-Butyl-3-isopropyl-2-oxo-1,4,8-triazaspiro[4,5]decan-8-thiocarboxylic acid 4-chlorobenzylamide]	30		73	51
CSCCC1NC2(CCN(C(=S)Nc3ccccc3C)CC2)N(Cc2ccc3ccccc3c2)C1=O (stereo not drawn) [Example 151, 3-(2-Methylsulfanylethyl)-1-naphthalin-2-ylmethyl-2-oxo-1,4,8-triazaspiro[4,5]decan-8-thiocarboxylic acid o-tolylamide]	42		84	64
CC(C)C1NC2(CCN(C(=S)Nc3c(F)c(F)c(F)c(F)c3F)CC2)N(Cc2ccccc2)C1=O (stereo not drawn) [Example 154, 1-Benzyl-3-isopropyl-2-oxo-1,4,8-triazaspiro[4,5]decan-8-thiocarboxylic acid pentafluorobenzolamide-amide]	43	34	61	
CCCCN1C(=O)C(CCSC)NC12CCN(C(=S)Nc1ccc(OCC)cc1)CC2 (stereo not drawn) [Example 158, 1-Butyl-3-(2-methylsulfanylethyl)-2-oxo-1,4,8-triazaspiro[4,5]decan-8-thiocarboxylic acid (4-ethoxy-benzol)amide]	41	33	35	
CCOC(=O)CN1C(=O)C(Cc2ccccc2)NC12CCN(C(=S)NCC1CCCCC1)CC2 (stereo not drawn) [Example 159, Ethyl[3-benzyl-8-(cyclohexylmethylthiocarbamoyl)-2-oxo-1,4,8-triazaspiro[4,5]dec-1-yl]-acetate]	36		84	33
CSCCC1NC2(CCN(C(=S)Nc3cccc(C(C)=O)c3)CC2)N(Cc2ccc3ccccc3c2)C1=O (stereo not drawn) [Example 165, 3-(2-Methylsulfanylethyl)-1-naphthalin-2-ylmethyl-2-oxo-1,4,8-triazaspiro[4,5]decan-8-thiocarboxylic acid (3-acetylbenzol)amide]	48	42	64	
Cc1cccc(NC(=S)N2CCC3(CC2)NC(Cc2ccccc2)C(=O)N3Cc2ccccc2F)c1 (stereo not drawn) [Example 166, 3-Benzyl-1-(2-fluorobenzyl)-2-oxo-1,4,8-triazaspiro[4,5]decan-8-thiocarboxylic acid m-tolylamide]	39		85	64
CCOC(=O)NC(=S)N1CCC2(CC1)NC(Cc1ccccc1)C(=O)N2Cc1ccccc1F (stereo not drawn) [Example 174, Ethyl[3-benzyl-1-(2-fluorobenzyl)-2-oxo-1,4,8-triazaspiro[4,5]decan-8-carbothioyl]-carbamate]	39		38	31
CCCCN1C(=O)C(CCSC)NC12CCN(C(=S)Nc1ccc(F)cc1)CC2 (stereo not drawn) [Example 189, 1-Butyl-3-(2-methylsulfanylethyl)-2-oxo-1,4,8-triazaspiro[4,5]decan-8-thiocarboxylic acid (4-fluorobenzol)amide]	30	66	41	
CSCCC1NC2(CCN(C(=O)Nc3cccc(C#N)c3)CC2)N(Cc2ccccc2)C1=O (stereo not drawn) [Example 208, 1-Benzyl-3-(2-methylsulfanylethyl)-2-oxo-1,4,8-triazaspiro[4,5]decan-8-carboxylic acid (3-cyanobenzol)amide]	49	45	41	
CCCCN1C(=O)C(CCSC)NC12CCN(C(=O)Nc1cc(OC)c(OC)c(OC)c1)CC2 (stereo not drawn) [Example 210, 1-Butyl-3-(2-methylsulfanylethyl)-2-oxo-1,4,8-triazaspiro[4,5]decan-8-carboxylic acid (3,4,5-trimethoxy-benzol)amide]	36	32	44	
CSCCC1NC2(CCN(C(=O)Nc3ccc(Cl)c(C(F)(F)F)c3)CC2)N(Cc2ccccc2)C1=O (stereo not drawn) [Example 211, 1-Benzyl-3-(2-methylsulfanylethyl)-2-oxo-1,4,8-triazaspiro[4,5]decan-8-carboxylic acid (4-chloro-3-trifluoromethylbenzol)amide]	40	45	85	
CCOc1ccc(NC(=O)N2CCC3(CC2)NC(CCSC)C(=O)N3Cc2ccccc2)cc1 (stereo not drawn) [Example 213, 1-Benzyl-3-(2-methylsulfanylethyl)-2-oxo-1,4,8-triazaspiro[4,5]decan-8-carboxylic acid (4-ethoxy-benzol)amide]	37	39	41	
CSCCC1NC2(CCN(C(=O)Nc3cccc(C(C)=O)c3)CC2)N(Cc2ccccc2)C1=O (stereo not drawn) [Example 214, 1-Benzyl-3-(2-methylsulfanylethyl)-2-oxo-1,4,8-triazaspiro[4,5]decan-8-carboxylic acid (3-acetylbenzol)amide]	36	51	40	

Source: patent publication US7560468B2, “Substituted 1,4,8-triazaspiro[4,5]decan-2-one compounds” (Gruenenthal GmbH, priority 2004, dated 2009)
